Like-named read-outs stand apart in the source and are kept apart here.
Columns and labels:
mouse = experiment: Tolerability for repeated dose administration in vivo (summary); conditions: weekly or twice-weekly administration
HeLa-HRE cells = experiment: Resazurin cytotoxicity assay, HeLa-HRE, 48 h; conditions: for IC50(HeLa)/IC50(A549): ratio HeLa vs A549
Procedure: (§1) We used A549 lung cancer and HeLa cervical cancer cell lines for initial screening of the prodrugs.
HeLa-HRE cells were treated with prodrugs of the
Dose -response curves were calculated from at least 27 incremental single concentrations over a
range of at least three log units.

A549 cells = experiment: Resazurin cytotoxicity assay, A549, 72 h; conditions: read-out: IC50(nM): A549
Procedure: as §1
Fi gure S9: Cell ular resazurin-based cytotoxi ci ty as s a y.
Dose -response curves were calculated from at least 27 incremental single concentrations over a range
of at least three log units. Individual experiments with annotated experiment numbers are shown for each prodrug

[1] = test system: NCI-60 standardized human tumor cell line panel; experiment: cells; type: cell-based; conditions: read-out: GI50
[2] = read-out: IC50(nM): HeLa, HeLa, 48 h

Q: For O=C(c1cc2cc(OCCCN3CCC3)ccc2[nH]1)N1CC(CCl)c2c1cc(OC(=O)N1CCCC3COCC31)c1ccccc21 (mixture of isomers) [O56-CBI-AZI], which “well-tolerated dose” value (mouse) is on record?
A: 1 mg/kg

Q: And the IC50 (HeLa-HRE cells; initial screening, A549 and HeLa cell lines)?
A: ~300 nM

Q: And the “IC50(HeLa)/IC50(A549)” value (HeLa-HRE cells)?
A: 1.1

Q: And the IC50 (HeLa-HRE cells; [2])?
A: 460 nM

Q: And the IC50 (A549 cells)?
A: 410 nM

Q: For COC(=O)Oc1cc2c(c3ccccc13)[C@H](CCl)CN2C(=O)c1cc2cc(OCCCN3CCC3)ccc2[nH]1 [MC-CBI-AZI], which “IC50(HeLa)/IC50(A549)” value (HeLa-HRE cells) is on record?
A: 0.5

Q: And the IC50 (HeLa-HRE cells; [2])?
A: 0.8 nM

Q: What about the IC50 (A549 cells) of the same compound?
A: 1.6 nM

Q: What does the source list for COC(=O)Oc1cc2c(c3ccccc13)[C@H](CCl)CN2C(=O)c1cc2cc(OC)c(OC)c(OC)c2[nH]1 [MC-CBI-TMI]?
A: IC50(HeLa)/IC50(A549) (HeLa-HRE cells): 1.5; IC50 (HeLa-HRE cells; [2]): 4.3 nM; IC50 (A549 cells): 2.9 nM

Q: Which “IC50(HeLa)/IC50(A549)” value (HeLa-HRE cells) does the source give for CN(CCSSCCN1CCOCC1)C(=O)Oc1cc2c(c3ccccc13)[C@H](CCl)CN2C(=O)c1cc2cc(OCCCN3CCC3)ccc2[nH]1 [SS00M-CBI-AZI] here?
A: 1.7

Q: And the IC50 (HeLa-HRE cells; [2])?
A: 6.9 nM

Q: What about the IC50 (A549 cells) of the same compound?
A: 4.1 nM

Q: And the GI50 ([1]; 786-0, AZI sheet)?
A: 32 nM

Q: And the GI50 ([1]; A498, AZI sheet)?
A: 9.1 nM

Q: And the GI50 ([1]; A549/ATCC, AZI sheet)?
A: 4.5 nM

Q: And the GI50 ([1]; ACHN, AZI sheet)?
A: 28 nM

Q: What about the GI50 ([1]; BT-549, AZI sheet) of the same compound?
A: 84 nM

Q: What about the GI50 ([1]; CAKI-1, AZI sheet) of the same compound?
A: 37 nM

Q: And the GI50 ([1]; CCRF-CEM, AZI sheet)?
A: 100 nM

Q: And the GI50 ([1]; COLO 205, AZI sheet)?
A: 320 nM

Q: And the GI50 ([1]; DU-145, AZI sheet)?
A: 12 nM

Q: And the GI50 ([1]; EKVX, AZI sheet)?
A: 42 nM

Q: What about the GI50 ([1]; HCC-2998, AZI sheet) of the same compound?
A: 27 nM

Q: And the GI50 ([1]; HCT-15, AZI sheet)?
A: 57 nM

Q: And the GI50 ([1]; HCT-116, AZI sheet)?
A: 45 nM

Q: What about the GI50 ([1]; HL-60(TB), AZI sheet) of the same compound?
A: 130 nM

Q: What about the GI50 ([1]; HOP-62, AZI sheet) of the same compound?
A: 2.5 nM

Q: And the GI50 ([1]; HOP-92, AZI sheet)?
A: 380 nM

Q: What about the GI50 ([1]; HT29, AZI sheet) of the same compound?
A: 70 nM

Q: And the GI50 ([1]; IGROV1, AZI sheet)?
A: 45 nM

Q: What about the GI50 ([1]; K-562, AZI sheet) of the same compound?
A: 75 nM

Q: And the GI50 ([1]; KM12, AZI sheet)?
A: 31 nM

Q: What about the GI50 ([1]; LOX IMVI, AZI sheet) of the same compound?
A: 8.7 nM

Q: What about the GI50 ([1]; M14, AZI sheet) of the same compound?
A: 10 nM

Q: And the GI50 ([1]; MALME-3M, AZI sheet)?
A: 48 nM

Q: And the GI50 ([1]; MCF7, AZI sheet)?
A: 7.5 nM

Q: And the GI50 ([1]; MDA-MB-231, AZI sheet)?
A: 71.1 nM

Q: What about the GI50 ([1]; MDA-MB-435, AZI sheet) of the same compound?
A: 37 nM

Q: And the GI50 ([1]; MDA-MB-468, AZI sheet)?
A: 40 nM

Q: And the GI50 ([1]; MOLT-4, AZI sheet)?
A: 50 nM

Q: And the GI50 ([1]; NCI-H23, AZI sheet)?
A: 10 nM

Q: What about the GI50 ([1]; NCI-H226, AZI sheet) of the same compound?
A: 9.5 nM

Q: And the GI50 ([1]; NCI-H522, AZI sheet)?
A: 270 nM

Q: What about the GI50 ([1]; OVCAR-3, AZI sheet) of the same compound?
A: 240 nM

Q: And the GI50 ([1]; OVCAR-4, AZI sheet)?
A: 620 nM

Q: And the GI50 ([1]; OVCAR-5, AZI sheet)?
A: 68 nM

Q: And the GI50 ([1]; OVCAR-8, AZI sheet)?
A: 25 nM

Q: What about the GI50 ([1]; PC-3, AZI sheet) of the same compound?
A: 39.6 nM

Q: What about the GI50 ([1]; RPMI-8226, AZI sheet) of the same compound?
A: 470 nM

Q: What about the GI50 ([1]; RXF 393, AZI sheet) of the same compound?
A: 41 nM

Q: What about the GI50 ([1]; SF-268, AZI sheet) of the same compound?
A: 24 nM

Q: What about the GI50 ([1]; SF-295, AZI sheet) of the same compound?
A: 3 nM

Q: What about the GI50 ([1]; SF-539, AZI sheet) of the same compound?
A: 51 nM

Q: And the GI50 ([1]; SK-MEL-2, AZI sheet)?
A: 49 nM

Q: What about the GI50 ([1]; SK-MEL-5, AZI sheet) of the same compound?
A: 6.3 nM

Q: What about the GI50 ([1]; SK-MEL-28, AZI sheet) of the same compound?
A: 29 nM

Q: What about the GI50 ([1]; SK-OV-3, AZI sheet) of the same compound?
A: 8.7 nM

Q: What about the GI50 ([1]; SN12C, AZI sheet) of the same compound?
A: 65 nM

Q: And the GI50 ([1]; SNB-19, AZI sheet)?
A: 6.6 nM

Q: What about the GI50 ([1]; SR, AZI sheet) of the same compound?
A: 7.4 nM

Q: And the GI50 ([1]; SW-620, AZI sheet)?
A: 46 nM

Q: What about the GI50 ([1]; T-47D, AZI sheet) of the same compound?
A: 290 nM

Q: And the GI50 ([1]; TK-10, AZI sheet)?
A: 970 nM

Q: And the GI50 ([1]; U251, AZI sheet)?
A: 3.6 nM

Q: And the GI50 ([1]; UACC-62, AZI sheet)?
A: 6.2 nM

Q: And the GI50 ([1]; UACC-257, AZI sheet)?
A: 92 nM

Q: And the GI50 ([1]; UO-31, AZI sheet)?
A: 44 nM

Q: Which results are given for COc1cc2cc(C(=O)N3C[C@@H](CCl)c4c3cc(OC(=O)N(C)CCSSCCN3CCOCC3)c3ccccc43)[nH]c2c(OC)c1OC [SS00M-CBI-TMI]?
A: IC50(HeLa)/IC50(A549) (HeLa-HRE cells): 3.6; IC50 (HeLa-HRE cells; [2]): 125 nM; IC50 (A549 cells): 35 nM; GI50 ([1]; 786-0): 16 nM; GI50 ([1]; A498): 270 nM; GI50 ([1]; A549/ATCC): 31 nM; GI50 ([1]; ACHN): 19 nM; GI50 ([1]; BT-549): 15 nM; GI50 ([1]; CAKI-1): 41 nM; GI50 ([1]; CCRF-CEM): 100 nM; GI50 ([1]; COLO 205): 450 nM; GI50 ([1]; EKVX): 82 nM; GI50 ([1]; HCC-2998): 78 nM; GI50 ([1]; HCT-15): 190 nM; GI50 ([1]; HCT-116): 610 nM; GI50 ([1]; HL-60(TB)): 78 nM; GI50 ([1]; HOP-62): 11 nM; GI50 ([1]; HOP-92): 750 nM; GI50 ([1]; HT29): 320 nM; GI50 ([1]; IGROV1): 23 nM; GI50 ([1]; K-562): 330 nM; GI50 ([1]; KM12): 150 nM; GI50 ([1]; LOX IMVI): 42 nM; GI50 ([1]; M14): 31 nM; GI50 ([1]; MALME-3M): 110 nM; GI50 ([1]; MDA-MB-435): 51 nM; GI50 ([1]; MDA-MB-468): 12 nM; GI50 ([1]; MOLT-4): 17 nM; GI50 ([1]; NCI-H23): 9.6 nM; GI50 ([1]; NCI-H226): 29 nM; GI50 ([1]; NCI-H460): 9.5 nM; GI50 ([1]; NCI-H522): 400 nM; GI50 ([1]; OVCAR-3): 690 nM; GI50 ([1]; OVCAR-4): 560 nM; GI50 ([1]; OVCAR-5): 82 nM; GI50 ([1]; OVCAR-8): 43 nM; GI50 ([1]; PC-3): 25 nM; GI50 ([1]; RPMI-8226): 850 nM; GI50 ([1]; RXF 393): 6.6 nM; GI50 ([1]; SF-268): 21 nM; GI50 ([1]; SF-295): 7.4 nM; GI50 ([1]; SF-539): 8.3 nM; GI50 ([1]; SK-MEL-5): 35 nM; GI50 ([1]; SK-MEL-28): 41 nM; GI50 ([1]; SK-OV-3): 16 nM; GI50 ([1]; SN12C): 34 nM; GI50 ([1]; SNB-19): 28 nM; GI50 ([1]; SR): 6.9 nM; GI50 ([1]; SW-620): 570 nM; GI50 ([1]; T-47D): 50 nM; GI50 ([1]; TK-10): 820 nM; GI50 ([1]; U251): 18 nM; GI50 ([1]; UACC-62): 52 nM; GI50 ([1]; UACC-257): 500 nM

Source: paper PMC10141580, “Cyclic Dichalcogenides Extend the Reach of Bioreductive Prodrugs to Harness Thiol/Disulfide Oxidoreductases: Applications to seco-Duocarmycins Targeting the Thioredoxin System” (ACS Central Science, 2023)
